# Assay results as given in PubChem BioAssay (NCI).
#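 Protocol summary: plate cells (96-well), add compound at 5 concentrations, incubate 48 h, interpolate endpoints linearly. At the GI50, growth is halved. TGI: total growth inhibition.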
# Experiments:
# Assay in all cases: NCI tumour cell line growth inhibition, 48 h
# RXF 393 renal = test system: RXF 393 renal
# SK-MEL-5 melanoma = test system: SK-MEL-5 melanoma
# NCI-H226 lung = test system: NCI-H226 lung
# MCF7 breast = test system: MCF7 breast
# SN12C renal = test system: SN12C renal
# A498 renal = test system: A498 renal
# NCI-H522 lung = test system: NCI-H522 lung
# SF-539 CNS = test system: SF-539 CNS
# LOX IMVI melanoma = test system: LOX IMVI melanoma
# SR leukemia = test system: SR leukemia
# K-562 leukemia = test system: K-562 leukemia
# 786-0 renal = test system: 786-0 renal
# MDA-MB-231 breast = test system: MDA-MB-231 breast
# CAKI-1 renal = test system: CAKI-1 renal
# MDA-MB-435 = test system: MDA-MB-435
# SK-OV-3 ovarian = test system: SK-OV-3 ovarian
# BT-549 breast = test system: BT-549 breast
# CCRF-CEM leukemia = test system: CCRF-CEM leukemia
# HOP-62 NSCLC = test system: HOP-62 NSCLC
# RPMI-8226 leukemia = test system: RPMI-8226 leukemia
# SF-295 CNS = test system: SF-295 CNS
# HCC-2998 colon = test system: HCC-2998 colon
# DU-145 prostate = test system: DU-145 prostate
# MALME-3M melanoma = test system: MALME-3M melanoma
# OVCAR-8 ovarian = test system: OVCAR-8 ovarian
# HCT-116 colon = test system: HCT-116 colon
# ACHN renal = test system: ACHN renal
# HCT-15 colon = test system: HCT-15 colon
# COLO 205 colon = test system: COLO 205 colon
# HT29 colon = test system: HT29 colon
# U251 CNS = test system: U251 CNS
# SNB-19 CNS = test system: SNB-19 CNS
# SW-620 colon = test system: SW-620 colon
# M14 melanoma = test system: M14 melanoma
# MOLT-4 leukemia = test system: MOLT-4 leukemia
# UACC-62 melanoma = test system: UACC-62 melanoma
# HS 578T breast = test system: HS 578T breast
# SK-MEL-28 melanoma = test system: SK-MEL-28 melanoma
# OVCAR-3 ovarian = test system: OVCAR-3 ovarian
# IGROV1 ovarian = test system: IGROV1 ovarian
# TK-10 renal = test system: TK-10 renal
# SNB-75 CNS = test system: SNB-75 CNS
# A549 NSCLC = test system: A549 NSCLC
# HL-60(TB) leukemia = test system: HL-60(TB) leukemia
# OVCAR-4 ovarian = test system: OVCAR-4 ovarian
# OVCAR-5 ovarian = test system: OVCAR-5 ovarian
# EKVX NSCLC = test system: EKVX NSCLC
# HOP-92 NSCLC = test system: HOP-92 NSCLC
# NCI-H460 lung = test system: NCI-H460 lung
# NCI/ADR-RES ovarian = test system: NCI/ADR-RES ovarian
# UACC-257 melanoma = test system: UACC-257 melanoma
# UO-31 renal = test system: UO-31 renal
# KM12 colon = test system: KM12 colon
# SK-MEL-2 melanoma = test system: SK-MEL-2 melanoma
# SF-268 CNS = test system: SF-268 CNS
# PC-3 prostate = test system: PC-3 prostate
# T-47D breast = test system: T-47D breast
compound,measurement,setting,value
Cc1cccc2sc(/N=C(\N)C(Br)Br)nc12,GI50,RXF 393 renal,1320 nM
same,TGI,RXF 393 renal,3320 nM
same,GI50,SK-MEL-5 melanoma,3030 nM
same,TGI,SK-MEL-5 melanoma,9420 nM
same,GI50,NCI-H226 lung,1820 nM
same,TGI,NCI-H226 lung,4130 nM
same,GI50,MCF7 breast,819 nM
same,TGI,MCF7 breast,3800 nM
same,GI50,SN12C renal,1680 nM
same,TGI,SN12C renal,3920 nM
same,GI50,A498 renal,12500 nM
same,TGI,A498 renal,25100 nM
same,GI50,NCI-H522 lung,1540 nM
same,TGI,NCI-H522 lung,3080 nM
same,GI50,SF-539 CNS,1420 nM
same,TGI,SF-539 CNS,3340 nM
same,GI50,LOX IMVI melanoma,158 nM
same,TGI,LOX IMVI melanoma,345 nM
same,GI50,SR leukemia,2010 nM
same,TGI,SR leukemia,7450 nM
same,GI50,K-562 leukemia,1070 nM
same,TGI,K-562 leukemia,12800 nM
same,GI50,786-0 renal,1810 nM
same,TGI,786-0 renal,4140 nM
same,GI50,MDA-MB-231 breast,2110 nM
same,TGI,MDA-MB-231 breast,7820 nM
same,GI50,CAKI-1 renal,820 nM
same,TGI,CAKI-1 renal,2100 nM
same,GI50,MDA-MB-435,1330 nM
same,TGI,MDA-MB-435,2920 nM
same,GI50,SK-OV-3 ovarian,4000 nM
same,TGI,SK-OV-3 ovarian,16000 nM
same,GI50,BT-549 breast,1660 nM
same,TGI,BT-549 breast,3550 nM
same,GI50,CCRF-CEM leukemia,2670 nM
same,TGI,CCRF-CEM leukemia,8120 nM
same,GI50,HOP-62 NSCLC,2700 nM
same,TGI,HOP-62 NSCLC,12100 nM
same,GI50,RPMI-8226 leukemia,2120 nM
same,TGI,RPMI-8226 leukemia,9510 nM
same,GI50,SF-295 CNS,3650 nM
same,TGI,SF-295 CNS,15500 nM
same,GI50,HCC-2998 colon,1590 nM
same,TGI,HCC-2998 colon,3450 nM
same,GI50,DU-145 prostate,1940 nM
same,TGI,DU-145 prostate,11100 nM
same,GI50,MALME-3M melanoma,1640 nM
same,TGI,MALME-3M melanoma,3660 nM
same,GI50,OVCAR-8 ovarian,2110 nM
same,TGI,OVCAR-8 ovarian,7270 nM
same,GI50,HCT-116 colon,520 nM
same,TGI,HCT-116 colon,1990 nM
same,GI50,ACHN renal,1070 nM
same,TGI,ACHN renal,3860 nM
same,GI50,HCT-15 colon,1250 nM
same,TGI,HCT-15 colon,6810 nM
same,GI50,COLO 205 colon,1250 nM
same,TGI,COLO 205 colon,2930 nM
same,GI50,HT29 colon,1180 nM
same,TGI,HT29 colon,3530 nM
same,GI50,U251 CNS,1310 nM
same,TGI,U251 CNS,3300 nM
same,GI50,SNB-19 CNS,3230 nM
same,TGI,SNB-19 CNS,15100 nM
same,GI50,SW-620 colon,659 nM
same,TGI,SW-620 colon,2410 nM
same,GI50,M14 melanoma,1390 nM
same,TGI,M14 melanoma,3710 nM
same,GI50,MOLT-4 leukemia,1720 nM
same,TGI,MOLT-4 leukemia,11500 nM
same,GI50,UACC-62 melanoma,2540 nM
same,TGI,UACC-62 melanoma,12000 nM
same,GI50,HS 578T breast,2320 nM
same,TGI,HS 578T breast,9790 nM
same,GI50,SK-MEL-28 melanoma,1910 nM
same,TGI,SK-MEL-28 melanoma,5260 nM
same,GI50,OVCAR-3 ovarian,1680 nM
same,TGI,OVCAR-3 ovarian,4380 nM
same,GI50,IGROV1 ovarian,1620 nM
same,TGI,IGROV1 ovarian,3750 nM
same,GI50,TK-10 renal,4300 nM
same,TGI,TK-10 renal,15500 nM
same,GI50,SNB-75 CNS,2010 nM
same,TGI,SNB-75 CNS,10600 nM
same,GI50,A549 NSCLC,2730 nM
same,TGI,A549 NSCLC,10400 nM
same,GI50,HL-60(TB) leukemia,1830 nM
same,TGI,HL-60(TB) leukemia,7130 nM
same,GI50,OVCAR-4 ovarian,2000 nM
same,TGI,OVCAR-4 ovarian,6500 nM
same,GI50,OVCAR-5 ovarian,2520 nM
same,TGI,OVCAR-5 ovarian,7500 nM
same,GI50,EKVX NSCLC,3610 nM
same,TGI,EKVX NSCLC,14200 nM
same,GI50,HOP-92 NSCLC,1540 nM
same,TGI,HOP-92 NSCLC,6390 nM
same,GI50,NCI-H460 lung,654 nM
same,TGI,NCI-H460 lung,2590 nM
same,GI50,NCI/ADR-RES ovarian,1670 nM
same,TGI,NCI/ADR-RES ovarian,7100 nM
same,GI50,UACC-257 melanoma,2900 nM
same,TGI,UACC-257 melanoma,11500 nM
same,GI50,UO-31 renal,1230 nM
same,TGI,UO-31 renal,7530 nM
same,GI50,KM12 colon,1990 nM
same,TGI,KM12 colon,11800 nM
same,GI50,SK-MEL-2 melanoma,2450 nM
same,TGI,SK-MEL-2 melanoma,7500 nM
same,GI50,SF-268 CNS,2240 nM
same,TGI,SF-268 CNS,13100 nM
same,GI50,PC-3 prostate,1930 nM
same,TGI,PC-3 prostate,6800 nM
same,GI50,T-47D breast,2540 nM
same,TGI,T-47D breast,12800 nM
